Assay results from patent publication US8227508B2, “Dietary and pharmaceutical compositions containing carnosol and/or rosmanol and their uses” (DSM IP Assets B.V., priority 2006, dated 2012).

Assays:
mouse = assay: Four Plates Test; format: in vivo; settings: −5 h and −1 h
Description: The method, which detects anxiolytic activity, follows that described by Aron et al (1971, Neuropharmacology, 10:459-469). Anxiolytics (benzodiazepines) increase the number of punished crossings. Animals were placed individually in a white plastic enclosure containing a floor consisting of 4 metal plates connected to an electric shock generator (Apelex: type 011346). Each mouse was left to explore freely for 15 seconds. Then, every time it crossed from one plate to another, it received a weak electric shock (2.5 mA, 1.5 s). The number of punished crossings was counted during a 1 minute test. 15 mice were studied per group. The test was performed blind.
Carnosol was evaluated at 3 doses (200, 400, 600 mg/kg), administered p.o. 24 h, 5 h and 1 h before the test, and compared with a vehicle control (corn oil) group.
Clobazam (32 mg/kg p.o.), administered 1 h before the test, was used as reference substance. Mice in this group received additional administrations of vehicle at 24 h and 5 h before the test in order to maintain experimental blinding.

[1] = biological target: T1, human calcitonin gene-related peptide (hCGRP) receptor (Homo sapiens, UniProt O60894+Q16602); assay: CGRP receptor radioligand binding assay; settings: 0.03 nM [125I]h-CGRPα, CHO cell membranes, read-out: percentage inhibition of control radioligand specific binding to hCGRP receptor
T1 construct: expressed in transfected cells; host or cells: CHO (membrane homogenates)
T1 sequence (Q16602 23-461): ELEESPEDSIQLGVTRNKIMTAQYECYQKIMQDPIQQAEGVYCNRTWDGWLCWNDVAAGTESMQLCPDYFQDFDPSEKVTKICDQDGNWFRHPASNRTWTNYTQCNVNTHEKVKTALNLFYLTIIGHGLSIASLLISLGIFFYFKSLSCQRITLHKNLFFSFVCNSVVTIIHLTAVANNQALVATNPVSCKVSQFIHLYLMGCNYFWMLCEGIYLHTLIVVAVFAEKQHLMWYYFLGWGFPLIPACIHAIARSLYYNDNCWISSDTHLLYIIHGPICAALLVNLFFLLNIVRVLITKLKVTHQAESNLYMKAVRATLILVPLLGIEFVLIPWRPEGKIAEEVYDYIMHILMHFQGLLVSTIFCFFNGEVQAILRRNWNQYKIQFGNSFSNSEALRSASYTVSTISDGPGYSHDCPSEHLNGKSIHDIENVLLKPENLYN
T1 sequence (O60894 27-148): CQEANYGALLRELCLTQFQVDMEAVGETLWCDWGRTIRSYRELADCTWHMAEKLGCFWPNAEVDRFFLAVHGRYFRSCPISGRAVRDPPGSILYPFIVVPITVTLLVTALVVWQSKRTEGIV
Protocol: The effect of carnosol on the agonist site of the human calcitonin gene-related peptide (hCGRP) receptor in transfected CHO cells was investigated using a radioligand binding assay adapted from that described by Aiyar et al. (1996, J. Biol. Chem., 271: 11325-11329).
Briefly, cell membrane homogenates (10 μg protein) were incubated for 90 min at 22° C. with 0.03 nM [^125I]h-CGRPα in the absence or presence of carnosol (10 μM) in a buffer containing 50 mM HEPES-NaOH (pH 7.4), 10 mM MgCl2, 4 mM KCl, 10 mM NaCl, 1 mM EDTA, 1 μM phosphoramidon, 0.3% BSA and 0.04% bacitracine. Non-specific binding was determined in the presence of 1 μM h-CGRPα. Following incubation, the samples were filtered rapidly under vacuum through glass fibre filters (GF/B, Packard) pre-soaked with 0.3% polyethyleneimine (PEI) and rinsed several times with ice-cold 50 mM Tris-HCl using a 96-sample cell harvester (Unifilter, Packard). The filters were dried then counted for radioactivity in a scintillation counter (Topcount, Packard) using a scintillation cocktail (Microscint 0, Packard). The results are expressed as percentage inhibition of the control radioligand specific binding. The standard reference compound used was h-CGRPα, the natural agonist of the hCGRP receptor.

[2] = biological target: human recombinant acetylcholinesterase (Homo sapiens, UniProt P22303); assay: Acetylcholinesterase inhibition (Ellman method); format: biochemical; settings: substrate AMTCh 50 μM, read-out: percentage inhibition of acetylcholinesterase activity
Chain of human recombinant acetylcholinesterase (P22303 32-614): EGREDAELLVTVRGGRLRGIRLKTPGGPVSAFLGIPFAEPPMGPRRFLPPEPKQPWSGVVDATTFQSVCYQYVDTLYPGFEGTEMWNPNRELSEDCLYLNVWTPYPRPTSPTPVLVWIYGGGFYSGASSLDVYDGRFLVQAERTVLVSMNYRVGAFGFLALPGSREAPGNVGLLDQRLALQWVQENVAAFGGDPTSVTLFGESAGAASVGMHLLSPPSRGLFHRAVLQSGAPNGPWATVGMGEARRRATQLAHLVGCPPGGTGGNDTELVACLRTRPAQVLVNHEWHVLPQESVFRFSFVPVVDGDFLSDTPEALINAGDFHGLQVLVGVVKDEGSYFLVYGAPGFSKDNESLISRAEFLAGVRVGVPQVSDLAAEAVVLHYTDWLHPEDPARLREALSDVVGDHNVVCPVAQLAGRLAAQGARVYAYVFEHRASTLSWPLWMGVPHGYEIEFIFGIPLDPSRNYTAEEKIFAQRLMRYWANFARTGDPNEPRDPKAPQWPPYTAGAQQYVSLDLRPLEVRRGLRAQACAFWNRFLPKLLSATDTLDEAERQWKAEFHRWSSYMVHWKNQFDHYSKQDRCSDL
Protocol: The effect of carnosol on human recombinant acetylcholinesterase activity was quantified by measuring the formation of 5-thio-2-nitrobenzoic acid from acetyl-6-methylthiocholine (AMTCh), as adapted from Ellman et al. (1961, Biochem. Pharmacol., 7: 88-90). Briefly, carnosol (10 μM), reference compound or water (control) were added to a buffer containing 200 mM NaH2PO4/Na2HPO4 (pH 8.0), 5 mg/ml (NH4)2SO4, 0.4 mM DTNB and 5 mU enzyme. The enzymatic reaction was then initiated by the addition of the substrate AMTCh at 50 μM. The absorbance was measured immediately (t=0) at λ=405 nm using a microplate reader (MRX, Dynatech or Ultra, Tecan). This measurement was used to detect any compound interference with the spectrophotometric detection at this wavelength. After 30 min incubation at 37° C. (t=30), a second measurement of the absorbance was made at λ=405 nm. The enzyme activity was determined by subtracting the signal measured at t=0 from that measured at t=30. The results are expressed as percentage inhibition of the control enzyme activity. The standard inhibitory reference compound used was neostigmine, tested in each experiment at several concentrations to obtain an inhibition curve from which its IC50 value was calculated.

CC(C)c1cc2c(c(O)c1O)[C@@]13CCCC(C)(C)[C@@H]1C[C@@H]2OC3=O [Carnosol, carnosol]
Number of punished crossings, mean (mouse; 200 mg/kg p.o. −24 h): 3.5
Number of punished crossings, mean (mouse; 400 mg/kg p.o. −24 h): 3.7
Number of punished crossings, mean (mouse; 600 mg/kg p.o. −24 h): 3.1
inhibition at 10 µM [1]: 54%
inhibition at 10 µM [2]: 53%
